Measured values published in publication PMC4069099, “Pharmacological Validation of an Inward-Rectifier Potassium (Kir) Channel as an Insecticide Target in the Yellow Fever Mosquito Aedes aegypti” (PLoS ONE, 2014).

How the values were obtained:
Format in all cases: cell-based
AeKir1 [1] = molecular target: T1, AeKir1 (Aedes aegypti, UniProt L0EQS9); assay: Tl+-flux assay in T-REx-HEK293 cells expressing AeKir1; also two-electrode voltage clamp in Xenopus oocytes ([…], […] block)
T1 sequence (L0EQS9 1-486): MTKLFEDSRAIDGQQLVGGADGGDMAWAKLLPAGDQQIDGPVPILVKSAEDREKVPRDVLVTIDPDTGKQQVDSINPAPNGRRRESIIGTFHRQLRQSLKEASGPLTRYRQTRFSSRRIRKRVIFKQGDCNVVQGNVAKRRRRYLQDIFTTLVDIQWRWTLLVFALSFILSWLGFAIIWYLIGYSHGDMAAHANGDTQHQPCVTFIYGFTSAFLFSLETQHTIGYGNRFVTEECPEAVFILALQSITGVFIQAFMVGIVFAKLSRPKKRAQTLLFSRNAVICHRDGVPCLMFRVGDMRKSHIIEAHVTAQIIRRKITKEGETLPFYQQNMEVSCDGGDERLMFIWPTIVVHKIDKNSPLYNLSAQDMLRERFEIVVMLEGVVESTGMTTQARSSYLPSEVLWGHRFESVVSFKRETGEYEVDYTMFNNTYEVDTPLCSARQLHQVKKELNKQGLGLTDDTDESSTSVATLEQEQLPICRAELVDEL

AeKir2B = molecular target: T2, AeKir2B (Aedes aegypti, UniProt L0EQ40); assay: two-electrode voltage clamp in Xenopus oocytes, activation of inward current at […]
T2 sequence (L0EQ40 1-489): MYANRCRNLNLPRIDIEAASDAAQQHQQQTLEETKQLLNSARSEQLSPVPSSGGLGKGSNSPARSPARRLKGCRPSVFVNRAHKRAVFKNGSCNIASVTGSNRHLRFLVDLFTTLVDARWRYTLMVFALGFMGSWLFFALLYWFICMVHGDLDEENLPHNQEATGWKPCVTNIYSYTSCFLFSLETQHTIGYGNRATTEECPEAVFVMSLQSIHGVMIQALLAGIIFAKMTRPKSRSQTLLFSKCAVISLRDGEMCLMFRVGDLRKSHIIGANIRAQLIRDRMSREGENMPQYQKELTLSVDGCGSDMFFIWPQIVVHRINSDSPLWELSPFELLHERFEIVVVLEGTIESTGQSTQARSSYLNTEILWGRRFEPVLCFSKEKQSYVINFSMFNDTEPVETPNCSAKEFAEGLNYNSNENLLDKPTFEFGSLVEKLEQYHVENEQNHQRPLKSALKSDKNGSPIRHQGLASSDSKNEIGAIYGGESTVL

AeKir1 [2] = molecular target: T1, AeKir1; assay: two-electrode voltage clamp in Xenopus oocytes, inhibition of inward current at […]

O=[N+]([O-])c1ccc(CN2CCOCCOCCN(Cc3ccc([N+](=O)[O-])cc3)CCOCC2)cc1 [VU590]
IC50 (AeKir1 [1]): 5.6 µM

Cc1ccc(OCC(O)Cn2c(=N)n(Cc3ccccc3)c3ccccc32)cc1 (stereo not drawn) [VU573]
% activation at 50 μM (AeKir2B): > 50 % activation at 50 µM | % inhibition at 50 μM (AeKir1 [2]): ~ 50
